Laboratory results reported in article PMC8245078, “Development of novel benzofuran-isatin conjugates as potential antiproliferative agents with apoptosis inducing mechanism in Colon cancer” (Journal of Enzyme Inhibition and Medicinal Chemistry, 2021).
Read-outs that look alike come from different tables or passages of the source.

Experiments:
Format in all cases: cell-based
[1] = test system: SR; experiment: NCI single dose screening (10 µM); conditions: Homo sapiens, read-out: GI% (cell growth inhibition percentage)
[2] = test system: RPMI-8226; experiment: NCI single dose screening (10 µM); conditions: Homo sapiens
[3] = test system: HOP-92; experiment: NCI single dose screening (10 µM); conditions: Homo sapiens
[4] = test system: HOP-62; experiment: NCI single dose screening (10 µM); conditions: Homo sapiens
[5] = test system: COLO 205; experiment: NCI single dose screening (10 µM); conditions: Homo sapiens
[6] = test system: KM12; experiment: NCI single dose screening (10 µM); conditions: Homo sapiens
[7] = test system: SF-539; experiment: NCI single dose screening (10 µM); conditions: Homo sapiens
[8] = test system: SF-268; experiment: NCI single dose screening (10 µM); conditions: Homo sapiens
[9] = test system: LOX IMVI; experiment: NCI single dose screening (10 µM); conditions: Homo sapiens, read-out: GI% (cell growth inhibition percentage)
[10] = test system: MDA-MB-435; experiment: NCI single dose screening (10 µM); conditions: Homo sapiens
[11] = test system: UACC-257; experiment: NCI single dose screening (10 µM); conditions: Homo sapiens
[12] = test system: UACC-62; experiment: NCI single dose screening (10 µM); conditions: Homo sapiens
[13] = test system: SK-MEL-2; experiment: NCI single dose screening (10 µM); conditions: Homo sapiens
[14] = test system: IGROV1; experiment: NCI single dose screening (10 µM); conditions: Homo sapiens
[15] = test system: OVCAR-3; experiment: NCI single dose screening (10 µM); conditions: Homo sapiens
[16] = test system: OVCAR-8; experiment: NCI single dose screening (10 µM); conditions: Homo sapiens
[17] = test system: OVCAR-4; experiment: NCI single dose screening (10 µM); conditions: Homo sapiens
[18] = test system: OVCAR-5; experiment: NCI single dose screening (10 µM); conditions: Homo sapiens
[19] = test system: RXF 393; experiment: NCI single dose screening (10 µM); conditions: Homo sapiens
[20] = test system: MCF7; experiment: NCI single dose screening (10 µM); conditions: Homo sapiens
[21] = test system: BT-549; experiment: NCI single dose screening (10 µM); conditions: Homo sapiens
[22] = test system: MDA-MB-231/ATCC; experiment: NCI single dose screening (10 µM); conditions: Homo sapiens
[23] = test system: NCI-55 cancer cell line panel; experiment: NCI single dose screening (10 µM), whole panel; conditions: Homo sapiens, read-out: Mean inhibition, % (mean GI%)
[24] = RPMI-8226, Leukaemia, single dose 10^−5 M, read-out: GI% (cell growth inhibition percentage)
[25] = HOP-92, Non-small cell lung cancer, single dose 10^−5 M, read-out: GI% (cell growth inhibition percentage)
[26] = HOP-62, Non-small cell lung cancer, single dose 10^−5 M, read-out: GI% (cell growth inhibition percentage)
[27] = COLO 205, Colon cancer, single dose 10^−5 M, read-out: GI% (cell growth inhibition percentage)
[28] = KM12, Colon cancer, single dose 10^−5 M, read-out: GI% (cell growth inhibition percentage)
[29] = SF-539, CNS cancer, single dose 10^−5 M, read-out: GI% (cell growth inhibition percentage)
[30] = SF-268, CNS cancer, single dose 10^−5 M, read-out: GI% (cell growth inhibition percentage)
[31] = MDA-MB-435, Melanoma, single dose 10^−5 M, read-out: GI% (cell growth inhibition percentage)
[32] = UACC-257, Melanoma, single dose 10^−5 M, read-out: GI% (cell growth inhibition percentage)
[33] = UACC-62, Melanoma, single dose 10^−5 M, read-out: GI% (cell growth inhibition percentage)
[34] = SK-MEL-2, Melanoma, single dose 10^−5 M, read-out: GI% (cell growth inhibition percentage)
[35] = IGROV-1, IGROV1, Ovarian cancer, single dose 10^−5 M, read-out: GI% (cell growth inhibition percentage)
[36] = OVCAR-3, Ovarian cancer, single dose 10^−5 M, read-out: GI% (cell growth inhibition percentage)
[37] = OVCAR-8, Ovarian cancer, single dose 10^−5 M, read-out: GI% (cell growth inhibition percentage)
[38] = OVCAR-4, Ovarian cancer, single dose 10^−5 M, read-out: GI% (cell growth inhibition percentage)
[39] = OVCAR-5, Ovarian cancer, single dose 10^−5 M, read-out: GI% (cell growth inhibition percentage)
[40] = RXF 393, Renal cancer, single dose 10^−5 M, read-out: GI% (cell growth inhibition percentage)
[41] = MCF7, Breast cancer, single dose 10^−5 M, read-out: GI% (cell growth inhibition percentage)
[42] = BT-549, Breast cancer, single dose 10^−5 M, read-out: GI% (cell growth inhibition percentage)
[43] = MDA-MB-231/ATCC, Breast cancer, single dose 10^−5 M, read-out: GI% (cell growth inhibition percentage)
[44] = mean over NCI-55 cell lines, single dose 10^−5 M
[45] = HOP-92, read-out: GI% (cell growth inhibition percentage)
[46] = HOP-62, read-out: GI% (cell growth inhibition percentage)
[47] = COLO 205, read-out: GI% (cell growth inhibition percentage)
[48] = KM12, read-out: GI% (cell growth inhibition percentage)
[49] = SF-539, read-out: GI% (cell growth inhibition percentage)
[50] = SF-268, read-out: GI% (cell growth inhibition percentage)
[51] = MDA-MB-435, read-out: GI% (cell growth inhibition percentage)
[52] = UACC-257, read-out: GI% (cell growth inhibition percentage)
[53] = UACC-62, read-out: GI% (cell growth inhibition percentage)
[54] = SK-MEL-2, read-out: GI% (cell growth inhibition percentage)
[55] = IGROV-1, read-out: GI% (cell growth inhibition percentage)
[56] = OVCAR-3, read-out: GI% (cell growth inhibition percentage)
[57] = OVCAR-8, read-out: GI% (cell growth inhibition percentage)
[58] = OVCAR-4, read-out: GI% (cell growth inhibition percentage)
[59] = OVCAR-5, read-out: GI% (cell growth inhibition percentage)
[60] = RXF 393, read-out: GI% (cell growth inhibition percentage)
[61] = MCF7, read-out: GI% (cell growth inhibition percentage)
[62] = BT-549, read-out: GI% (cell growth inhibition percentage)
[63] = MDA-MB-231, read-out: GI% (cell growth inhibition percentage)

## Cc1c(C(=O)N/N=C2\C(=O)Nc3ccc(F)cc32)oc2ccccc12 [Compound 5b]
[1]; Leukaemia, single dose 10^−5 M
  inhibition at 10 µM: < 10%
[2]; [24]
  inhibition at 10 µM: < 10%
[3]; [25]
  inhibition at 10 µM: < 10%
[4]; [26]
  inhibition at 10 µM: < 10%
[5]; [27]
  inhibition at 10 µM: < 10%
[6]; [28]
  inhibition at 10 µM: < 10%
[7]; [29]
  inhibition at 10 µM: < 10%
[8]; [30]
  inhibition at 10 µM: < 10%
[9]; Melanoma, single dose 10^−5 M
  inhibition at 10 µM: < 10%
[10]; [31]
  inhibition at 10 µM: < 10%
[11]; [32]
  inhibition at 10 µM: < 10%
[12]; [33]
  inhibition at 10 µM: 10.9%
[13]; [34]
  inhibition at 10 µM: < 10%
[14]; [35]
  inhibition at 10 µM: 33.7%
[15]; [36]
  inhibition at 10 µM: < 10%
[16]; [37]
  inhibition at 10 µM: < 10%
[17]; [38]
  inhibition at 10 µM: < 10%
[18]; [39]
  inhibition at 10 µM: < 10%
[19]; [40]
  inhibition at 10 µM: < 10%
[20]; [41]
  inhibition at 10 µM: 19%
[21]; [42]
  inhibition at 10 µM: < 10%
[22]; [43]
  inhibition at 10 µM: 14.6%
[23]; [44]
  inhibition at 10 µM: 0.75%

## Cc1c(C(=O)N/N=C2\C(=O)N(Cc3ccccc3)c3ccccc32)oc2ccccc12 [Compound 7d]
[1]
  inhibition at 10 µM: < 10%
[2]; RPMI-8226, read-out: GI% (cell growth inhibition percentage)
  inhibition at 10 µM: < 10%
[3]; [45]
  inhibition at 10 µM: 12.6%
[4]; [46]
  inhibition at 10 µM: 20.8%
[5]; [47]
  inhibition at 10 µM: < 10%
[6]; [48]
  inhibition at 10 µM: < 10%
[7]; [49]
  inhibition at 10 µM: < 10%
[8]; [50]
  inhibition at 10 µM: < 10%
[9]
  inhibition at 10 µM: 13.8%
[10]; [51]
  inhibition at 10 µM: < 10%
[11]; [52]
  inhibition at 10 µM: < 10%
[12]; [53]
  inhibition at 10 µM: 20.6%
[13]; [54]
  inhibition at 10 µM: < 10%
[14]; [55]
  inhibition at 10 µM: 33.6%
[15]; [56]
  inhibition at 10 µM: < 10%
[16]; [57]
  inhibition at 10 µM: < 10%
[17]; [58]
  inhibition at 10 µM: < 10%
[18]; [59]
  inhibition at 10 µM: < 10%
[19]; [60]
  inhibition at 10 µM: < 10%
[20]; [61]
  inhibition at 10 µM: 16.7%
[21]; [62]
  inhibition at 10 µM: < 10%
[22]; [63]
  inhibition at 10 µM: 18.3%
[23]
  inhibition at 10 µM: 6.01%

## Cc1c(C(=O)N/N=C2\C(=O)Nc3ccc(Br)cc32)oc2ccccc12 [Compound 5c]
[1]; Leukaemia, single dose 10^−5 M
  inhibition at 10 µM: 17.6%
[2]; [24]
  inhibition at 10 µM: < 10%
[3]; [25]
  inhibition at 10 µM: 26.5%
[4]; [26]
  inhibition at 10 µM: 41.4%
[5]; [27]
  inhibition at 10 µM: < 10%
[6]; [28]
  inhibition at 10 µM: 20.5%
[7]; [29]
  inhibition at 10 µM: 57.9%
[8]; [30]
  inhibition at 10 µM: 11.7%
[9]; Melanoma, single dose 10^−5 M
  inhibition at 10 µM: 33.8%
[10]; [31]
  inhibition at 10 µM: < 10%
[11]; [32]
  inhibition at 10 µM: < 10%
[12]; [33]
  inhibition at 10 µM: 30.9%
[13]; [34]
  inhibition at 10 µM: < 10%
[14]; [35]
  inhibition at 10 µM: 44.6%
[15]; [36]
  inhibition at 10 µM: < 10%
[16]; [37]
  inhibition at 10 µM: 22.5%
[17]; [38]
  inhibition at 10 µM: 31%
[18]; [39]
  inhibition at 10 µM: < 10%
[19]; [40]
  inhibition at 10 µM: 11.1%
[20]; [41]
  inhibition at 10 µM: 26.7%
[21]; [42]
  inhibition at 10 µM: 22.1%
[22]; [43]
  inhibition at 10 µM: 29.9%
[23]; [44]
  inhibition at 10 µM: 22%

## CCCN1C(=O)/C(=N\NC(=O)c2oc3ccccc3c2C)c2ccccc21 [Compound 7b]
[1]
  inhibition at 10 µM: < 10%
[3]; [45]
  inhibition at 10 µM: < 10%
[4]; [46]
  inhibition at 10 µM: 18.1%
[5]; [47]
  inhibition at 10 µM: < 10%
[6]; [48]
  inhibition at 10 µM: < 10%
[7]; [49]
  inhibition at 10 µM: < 10%
[8]; [50]
  inhibition at 10 µM: < 10%
[9]
  inhibition at 10 µM: < 10%
[10]; [51]
  inhibition at 10 µM: < 10%
[11]; [52]
  inhibition at 10 µM: < 10%
[12]; [53]
  inhibition at 10 µM: 16.9%
[13]; [54]
  inhibition at 10 µM: < 10%
[14]; [55]
  inhibition at 10 µM: 42.5%
[15]; [56]
  inhibition at 10 µM: < 10%
[16]; [57]
  inhibition at 10 µM: < 10%
[17]; [58]
  inhibition at 10 µM: < 10%
[18]; [59]
  inhibition at 10 µM: < 10%
[19]; [60]
  inhibition at 10 µM: < 10%
[20]; [61]
  inhibition at 10 µM: 25%
[21]; [62]
  inhibition at 10 µM: < 10%
[22]; [63]
  inhibition at 10 µM: 29%
[23]
  inhibition at 10 µM: 5.18%
